The results in this text go back to publication PMC7053198 (Theranostics, 2020).

The structures appear in SMILES notation.

This assay concerns A375Pβ6 cells. As to conditions: A375Pβ6, αvβ6 positive; 72 h treatment, MTT assay; ±SD, n=3.

As a reminder, the IC50 is the concentration needed to halve the response being measured. As to `COc1cc2c(cc1OCCCCCOc1cc3c(cc1OC)C(=O)N1C=C(C)C[C@H]1C=N3)N=C[C@@H]1CC(C)=CN1C2=O` [SG3199, reference compound], the half-inhibitory concentration (IC50) worked out at 0.11 ± 0.08 nM.
